# Laboratory results as given in patent US20230069886A1, “AROMATIC SULPHONAMIDES DERIVATIVES THAT INHIBITS PDI A3, THEIR SYNTHESIS AND USE” (Uniwersytet Jagiellonski, priority 2020, published 2023).
# Read-outs that look alike come from different tables or passages of the source.
# What was measured:
# [1] = system: MCF-7; assay: MTT antiproliferative assay, 48 h, MCF-7; assay type: cell-based, human; details: 48-hour exposition
# Experimental: (§1) Anticancer activity of compounds of invention, PDI A3-inhibitors has been tested in vitro in classical antiproliferative assay in various cancer cells lines. Monolayer tumor cell lines MDA-MB-231 (human mammary breast adenocarcinoma), MCF-7 (human breast adenocarcinoma, estrogen-positive), HT-1080 (human fibrosarcoma) and Caco-2 (human colon adenocarcinoma) were cultured in standard medium DMEM (Dulbecco's modified Eagle's medium) (“Sigma”) supplemented with 10% foetal bovine serum (“Sigma”). About 2000-4000 cells per well (depending on line nature) were placed in 96-well plates and after 24 h compounds were added to the wells. Untreated cells were used as a control. The plates were incubated for 48 h, 37° C., 5% CO2. The number of surviving cells was determined using 3-(4,5-dimethylthiazol-2-yl)-2,5-diphenyltetrazolinium bromide (MTT). MTT-test: after incubating culture medium was removed and 200 μL fresh medium with 20 μL MTT (2 mg/mL in HBSS) was added in each well of the plate. After incubation (3 hr., 37° C., 5% CO2), the medium with MTT was removed and 200 μL DMSO were added at once to each sample. The samples were tested at 540 nm on Thermo Scientific Multiskan EX microplate photometer. The half-maximal inhibitory concentration (IC50) of each compound was calculated using Graph Pad Prism® 3.0.
# [2] = system: CaCo-2; assay: MTT antiproliferative assay, 48 h, Caco-2; assay type: cell-based, human
# Experimental: as §1
# [3] = system: MDA-MB-231; assay: MTT antiproliferative assay, 48 h, MDA-MB-231; assay type: cell-based, human; details: 48-hour exposition
# Experimental: as §1
# [4] = target: T1, PDI A3 (Homo sapiens, UniProt P30101); assay: PDI A3 inhibition, insulin turbidimetric assay; assay type: biochemical; details: 10 ug/ml PDI A3, incubated 60 min at 37° C., turbidity at 650 nm; read-out: Inhibition of PDI A3 (EC 50)
# T1 construct: purchased Mybiosource; host or cells: E. coli
# T1 sequence (P30101 25-505): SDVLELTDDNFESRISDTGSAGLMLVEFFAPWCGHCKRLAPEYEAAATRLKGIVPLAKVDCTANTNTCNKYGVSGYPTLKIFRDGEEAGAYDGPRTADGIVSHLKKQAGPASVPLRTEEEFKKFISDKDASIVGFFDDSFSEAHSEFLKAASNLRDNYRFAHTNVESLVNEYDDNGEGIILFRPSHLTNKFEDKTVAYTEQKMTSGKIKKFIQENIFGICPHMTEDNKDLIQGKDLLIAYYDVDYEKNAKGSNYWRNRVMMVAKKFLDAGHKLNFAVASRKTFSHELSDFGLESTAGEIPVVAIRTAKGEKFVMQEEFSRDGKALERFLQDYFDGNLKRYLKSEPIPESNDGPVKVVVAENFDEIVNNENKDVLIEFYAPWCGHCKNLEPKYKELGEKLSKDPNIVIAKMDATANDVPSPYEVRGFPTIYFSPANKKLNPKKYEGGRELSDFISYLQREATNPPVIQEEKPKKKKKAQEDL
# Experimental: The inhibitory effects compounds of invention on activity of PDIA3 was assess based on the insulin turbidimetric assay. Enzymatic activity of PDIA3 was confirmed by measuring the turbidity increase at 650 nm due to insulin reduction. The assay mixture was prepared by addition 10 ug/ml PDI A3 (E. coli recombinant protein; Mybiosource), […] phosphate buffer (pH7.6), 1 mM EDTA, 0.087 mM DTT and with or without tested compound and was incubated for 60 min, at 37° C. Reaction was started by addition of insulin and DTT. Final concentration of insulin and DTT in assay mixture were 0.15 mMv and 0.174 mMv, respectively. Turbidity was detected at 650 nm against reference samples without PDJs. The measurements were performed at 650 nm using 120-s recordings.
# [5] = system: MDA-MB-231; assay: Sulforhodamine B antiproliferative assay, 72 h, normal/hypoxia, MDA-MB-231; assay type: cell-based, human; details: 72 hours exposition; for IC50 [μg/ml] MDA-MB-231 hypoxia: hypoxia (<1% of oxygen); for IC50 [μg/ml] MDA-MB-231 normal: normal (21% of oxygen)
# Experimental: (§2) Anticancer activity of selected compounds of invention, PDI A3-inhibitors has been also tested in vitro in antiproliferative assay in normoxic and hypoxic conditions as well in estrogen-stimulated cancer cells. In the experiment, cells were seeded on 96-well plates (Sarstedt, Germany) in appropriate culture medium at a density of 10^5 cells/mL 24 h before adding the tested compounds. Cells were treated with each compound in four concentrations in the range 0.1-100 μg/mL. […] After 72 h of compound treatment at 37° C., 5% CO2 humid atmosphere and in wo different oxygen level conditions: 21%—normal and <1%—hypoxia. In some experiments the MDA-MB-231 and MCF-7 cells were seeded with or without 200 nM estradiol and after 24 h the tested compounds were added. A previously described sulforhodamine B antiproliferative assay was used with minor modifications (Skehan P et al., 1990). Briefly, cells were fixed with 50 μL/well of 50% (w/v) trichloroacetic acid (Avantor Performance Materials, Gliwice, Poland). After 1 h incubation, plates were washed several times with tap water and 50 μL of 0.4% (w/v) solution of sulforhodamine B (Sigma-Aldrich, Germany) in 1% (v/v) acetic acid (Avantor Performance Materials, Gliwice, Poland) was added to each well. After 30 min incubation at room temperature, unbound dye was washed out with 1% (v/v) acetic acid, whereas bound dye was solubilized with 10 mM unbuffered TRIS (Avantor Performance Materials, Gliwice, Poland) solution. The entire procedure was performed using a BioTek EL-406 washing station (BioTek Instruments, USA). After additional 30 min, absorbance was read using a Biotek Hybrid H4 reader (BioTek Instruments, USA) at 540 nm wavelength. MTT assay was used alternatively for HL-60 cell line and in the experiment in which estrogens are added (specified in the table legend). Absorbance was measured using a Biotek Hybrid H4 reader at 570 nm wavelength for MTT assay.
# (§3) Compounds at each concentration were tested in triplicate in a single experiment and each experiment was repeated at least three times independently. Results are presented as mean IC50±SD.
# [6] = system: MCF-7; assay: Sulforhodamine B antiproliferative assay, 72 h, normal/hypoxia, MCF-7; assay type: cell-based, human; details: 72 hours exposition; for IC50 [μg/ml] MCF-7 hypoxia: hypoxia (<1% of oxygen); for IC50 [μg/ml] MCF-7 normal: normal (21% of oxygen)
# Experimental: as §2, §3
# [7] = system: CaCo-2; assay: Sulforhodamine B antiproliferative assay, 72 h, Caco-2; assay type: cell-based, human; details: normal (21% of oxygen), 72 hours exposition
# Experimental: In the experiment, cells were seeded on 96-well plates (Sarstedt, Germany) in appropriate culture medium at a density of 10^5 cells/mL 24 h before adding the tested compounds. Cells were treated with each compound in four concentrations in the range 0.1-100 μg/mL. […] Briefly, cells were fixed with 50 μL/well of 50% (w/v) trichloroacetic acid (Avantor Performance Materials, Gliwice, Poland). After 1 h incubation, plates were washed several times with tap water and 50 μL of 0.4% (w/v) solution of sulforhodamine B (Sigma-Aldrich, Germany) in 1% (v/v) acetic acid (Avantor Performance Materials, Gliwice, Poland) was added to each well. After 30 min incubation at room temperature, unbound dye was washed out with 1% (v/v) acetic acid, whereas bound dye was solubilized with 10 mM unbuffered TRIS (Avantor Performance Materials, Gliwice, Poland) solution. […] After additional 30 min, absorbance was read using a Biotek Hybrid H4 reader (BioTek Instruments, USA) at 540 nm wavelength.
# [8] = system: HT-29; assay: Sulforhodamine B antiproliferative assay, 72 h, HT-29; assay type: cell-based, human; details: normal (21% of oxygen), 72 hours exposition
# Experimental: as §2, §3
# [9] = system: HT-29; assay: MTT antiproliferative assay, 72 h, HT-29; assay type: cell-based, human; details: Homo sapiens, HT-29, 72 hours exposition, read-out: IC50 [μg/ml] HT-29 normal
# Experimental: as §2, with “A previously described sulforhodamine B antiproliferative assay was used with minor modifications (Skehan P et al., 1990).” left out, “MTT assay was used alternatively for HL-60 cell line and in the experiment in which estrogens are added (specified in the table legend).” left out
# as §3
# [10] = system: MCF-7; assay: MTT antiproliferative assay, 72 h, with or without estradiol, MCF-7; assay type: cell-based, human; details: for IC50: Homo sapiens, MCF7, 72 hours exposition, MTT
# Experimental: as §2, §3
# [11] = system: MCF-10A; assay: Selectivity index MCF-10A versus MCF-7; assay type: cell-based; details: 72 hours exposition
# Experimental: as §2
# Compounds at each concentration were tested in triplicate in a single experiment and each experiment was repeated at least three times independently. […]
# [12] = system: MDA-MB-231; assay: MTT antiproliferative assay, 72 h, with or without estradiol, MDA-MB-231; assay type: cell-based, human; details: for IC50: Homo sapiens, MDA-MB-231, 72 hours exposition, MTT
# Experimental: as §2, §3
# [13] = system: HL-60; assay: MTT antiproliferative assay, 72 h, HL-60; assay type: cell-based, human; details: Homo sapiens, HL-60, 72 hours exposition, read-out: IC50 [μg/ml] HL-60 normal
# Experimental: as §2, §3
structure (smiles),measurement,setting,value
"CN(C)c1ccc2c(S(=O)(=O)N3CC3C(N)=O)cccc2c1 (centres unmarked) [Compound C-3459, 1-[[6-(Dimethylamino)-1-naphthyl]sulfonyl]aziridine-2-carboxamide]","Cytotoxicity, IC50, μM MCF-7",[1],n.e.
same,"Cytotoxicity, IC50, μM CaCo-2",[2]; 48-hour exposition,n.e.
same,melting point,,197 to 199 °C
same,"Cytotoxicity, IC50, μM MDA-MB-231",[3],n.e.
same,EC50,[4],130 µM
COc1ccc(N2C(=O)/C(=C\c3ccc([N+](=O)[O-])s3)SC2=S)cc1 [CCF642],IC50 [μg/ml] MDA-MB-231 hypoxia,[5],0.3 ± 0.2 µg/mL
same,IC50 [μg/ml] MDA-MB-231 normal,[5],0.3 ± 0.1 µg/mL
same,IC50 [μg/ml] MCF-7 hypoxia,[6],0.6 ± 0.6 µg/mL
same,IC50 [μg/ml] MCF-7 normal,[6],0.7 ± 0.5 µg/mL
same,IC50 [μg/ml] Caco-2 normal,[7],0.4 ± 0.1 µg/mL
same,IC50 [μg/ml] HT-29 normal,[8],0.4 ± 0.05 µg/mL
N.N.[Cl][Pt][Cl] [Cisplatin],IC50 [μg/ml] MDA-MB-231 hypoxia,[5],3.1 ± 0.9 µg/mL
same,IC50 [μg/ml] MDA-MB-231 normal,[5],3.2 ± 0.5 µg/mL
same,IC50 [μg/ml] MCF-7 hypoxia,[6],1.3 ± 0.5 µg/mL
same,IC50 [μg/ml] MCF-7 normal,[6],1.8 ± 0.3 µg/mL
same,IC50 [μg/ml] HT-29 normal,[8],2.82 ± 0.6 µg/mL
"COC(=O)C1CN1S(=O)(=O)c1ccc2cc(OC)ccc2c1 (centres unmarked) [Compound C-3327, Methyl 1-[(6-methoxy-2-naphthyl)sulfonyl]aziridine-2-carboxylate]",IC50,"[2]; Homo sapiens, Caco-2, 48-hour exposition, read-out: Cytotoxicity, IC50, μM CaCo-2",150 ± 10 µM
"COC(=O)C1CN1S(=O)(=O)c1cccc2cc(N(C)C)ccc12 (centres unmarked) [Compound C-3375, Methyl 1-[[6-(dimethylamino)-1-naphthyl]sulfonyl]aziridine-2-carboxylate]",IC50,[9],27.8 ± 7.5 µg/mL
same,IC50,"[10]; not pretreated with estradiol, read-out: IC50 [μg/ml] MCF-7 normal",3.5 ± 0.4 µg/mL
same,IC50,"[10]; pretreated with 200 nM estradiol, read-out: IC50 [μg/ml] MCF-7 +estradiol",3.4 ± 0.3 µg/mL
same,Lower sensitivity after treatment with estradiol in MCF-7,"[10]; estradiol (200 nM), Table 4",not observed
same,Selectivity index (SI): IC50 of MCF-10A/IC50 of MCF-7,[11],6.90
same,IC50,"[12]; not pretreated with estradiol, read-out: IC50 [μg/ml] MDA-MB-231 normal",3.8 ± 0.1 µg/mL
same,IC50,"[12]; pretreated with 200 nM estradiol, read-out: IC50 [μg/ml] MDA-MB-231 +estradiol",7 ± 1.1 µg/mL
same,Sensitivity of MDA-MB-231 line after treatment with estradiol,"[12]; estradiol (200 nM), Table 4",slightly lower sensitivity
same,IC50,[13],3.3 ± 0.2 µg/mL
